Key:
liver = settings: in vivo; cited from earlier work
rodent = settings: in vivo; cited from earlier work
[1] = system: mRNA expressed from the genes (A) to (D) in rat liver; assay: Behavior of genes (mRNA expression level, oligo-DNA microarray) in rat liver after 28-day oral administration; format: in vivo
How it was run: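 Groups of four male F344 SPF rats aged 5 weeks are gavaged once a day for 28 days with test chemical in solvent or with solvent alone at equal volume. Total RNA comes from liver taken on day 28. Fold change of 1.5 or 1/1.5 versus control, directionally consistent, defines significance.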

[2] = gene group (A), Unigene No. Rn.167075, mRNA vs vehicle control group
[3] = gene group (C), Unigene No. Rn.120914, mRNA vs vehicle control group
[4] = (C), Unigene Rn.120914, defined direction +, rat liver, oral once daily 28 days

C=CCc1ccc2c(c1)OCO2 [TS025, Safrole]
Cr+: Liver carcinogenicity (liver)
C+: Carcinogenicity (rodent)
+: Behavior of gene caused by administration of chemical substance, Gene No. 4846 ([1]; gene group (A), Unigene No. Rn.144554, mRNA vs vehicle control group) | Behavior of gene caused by administration of chemical substance, Gene No. 4218 [1, 2] | Behavior of gene caused by administration of chemical substance, Gene No. 6182 ([1]; gene group (A), Unigene No. Rn.5834, mRNA vs vehicle control group) | Behavior of gene caused by administration of chemical substance, Gene No. 5600 ([1]; gene group (A), Unigene No. Rn.9836, mRNA vs vehicle control group) | Behavior of gene caused by administration of chemical substance, Gene No. 1494 ([1]; gene group (B), Unigene No. Rn.1430, mRNA vs vehicle control group) | Behavior of gene caused by administration of chemical substance, Gene No. 2045 ([1]; gene group (B), Unigene No. Rn.19329, mRNA vs vehicle control group) | Behavior of gene caused by administration of chemical substance, Gene No. 2203 ([1]; gene group (B), Unigene No. Rn.21240, mRNA vs vehicle control group) | Behavior of gene caused by administration of chemical substance, Gene No. 533 ([1]; gene group (C), Unigene No. Rn.106184, mRNA vs vehicle control group) | Behavior of gene caused by administration of chemical substance, Gene No. 725 ([1]; gene group (C), Unigene No. Rn.108075, mRNA vs vehicle control group) | Behavior of gene caused by administration of chemical substance, Gene No. 4973 ([1]; gene group (C), Unigene No. Rn.118529, mRNA vs vehicle control group) | Behavior of gene caused by administration of chemical substance, Gene No. 4095 ([1]; gene group (C), Unigene No. Rn.119024, mRNA vs vehicle control group) | Behavior of gene caused by administration of chemical substance, Gene No. 6303 ([1]; gene group (C), Unigene No. Rn.123063, mRNA vs vehicle control group) | Behavior of gene caused by administration of chemical substance, Gene No. 1741 ([1]; gene group (C), Unigene No. Rn.1647, mRNA vs vehicle control group) | Behavior of gene caused by administration of chemical substance, Gene No. 154 ([1]; gene group (C), Unigene No. Rn.185941, mRNA vs vehicle control group) | Behavior of gene caused by administration of chemical substance, Gene No. 813 ([1]; gene group (C), Unigene No. Rn.201760, mRNA vs vehicle control group) | Behavior of gene caused by administration of chemical substance, Gene No. 3776 ([1]; gene group (C), Unigene No. Rn.43232, mRNA vs vehicle control group) | Behavior of gene caused by administration of chemical substance, Gene No. 6742 ([1]; gene group (C), Unigene No. Rn.9779, mRNA vs vehicle control group) | Behavior of gene caused by administration of chemical substance, Gene No. 5634 ([1]; gene group (C), Unigene No. Rn.9862, mRNA vs vehicle control group)
−: Behavior of gene caused by administration of chemical substance, Gene No. 2026 [1, 2] | Behavior of gene caused by administration of chemical substance, Gene No. 1163 ([1]; gene group (C), Unigene No. Rn.11766, mRNA vs vehicle control group) | Behavior of gene caused by administration of chemical substance, Gene No. 1334 [1, 3] | Behavior of gene caused by administration of chemical substance, Gene No. 6620 [1, 3] | Behavior of gene caused by administration of chemical substance, Gene No. 5878 ([1]; gene group (C), Unigene No. Rn.143213, mRNA vs vehicle control group) | Behavior of gene caused by administration of chemical substance, Gene No. 1131 ([1]; gene group (C), Unigene No. Rn.144946, mRNA vs vehicle control group) | Behavior of gene caused by administration of chemical substance, Gene No. 1562 ([1]; gene group (C), Unigene No. Rn.14744, mRNA vs vehicle control group) | Behavior of gene caused by administration of chemical substance, Gene No. 893 ([1]; gene group (C), Unigene No. Rn.164817, mRNA vs vehicle control group) | Behavior of gene caused by administration of chemical substance, Gene No. 6026 ([1]; gene group (C), Unigene No. Rn.167685, mRNA vs vehicle control group) | Behavior of gene caused by administration of chemical substance, Gene No. 1993 ([1]; gene group (C), Unigene No. Rn.18728, mRNA vs vehicle control group) | Behavior of gene caused by administration of chemical substance, Gene No. 2494 ([1]; gene group (C), Unigene No. Rn.23969, mRNA vs vehicle control group) | Behavior of gene caused by administration of chemical substance, Gene No. 2546 ([1]; gene group (C), Unigene No. Rn.24561, mRNA vs vehicle control group) | Behavior of gene caused by administration of chemical substance, Gene No. 3929 ([1]; gene group (C), Unigene No. Rn.4620, mRNA vs vehicle control group) | Behavior of gene caused by administration of chemical substance, Gene No. 1119 ([1]; gene group (C), Unigene No. Rn.9757, mRNA vs vehicle control group) | Behavior of gene caused by administration of chemical substance, Gene No. 5726 ([1]; gene group (D), Unigene No. Rn.9939, mRNA vs vehicle control group)

c1ccoc1 [TS028, Furan]
+: Behavior of gene caused by administration of chemical substance, Gene No. 4846 ([1]; (A), Unigene Rn.144554, defined direction +, rat liver, oral once daily 28 days) | Behavior of gene caused by administration of chemical substance, Gene No. 4218 ([1]; (A), Unigene Rn.167075, defined direction +, rat liver, oral once daily 28 days, significant = 1.5 times or more or 1/1.5 or less of control) | Behavior of gene caused by administration of chemical substance, Gene No. 2026 ([1]; (A), Unigene Rn.167075, defined direction −, rat liver, oral once daily 28 days) | Behavior of gene caused by administration of chemical substance, Gene No. 6182 ([1]; (A), Unigene Rn.5834, defined direction +, rat liver, oral once daily 28 days) | Behavior of gene caused by administration of chemical substance, Gene No. 5600 ([1]; (A), Unigene Rn.9836, defined direction +, rat liver, oral once daily 28 days) | Behavior of gene caused by administration of chemical substance, Gene No. 1494 ([1]; (B), Unigene Rn.1430, defined direction −, rat liver, oral once daily 28 days) | Behavior of gene caused by administration of chemical substance, Gene No. 533 ([1]; (C), Unigene Rn.106184, defined direction +, rat liver, oral once daily 28 days) | Behavior of gene caused by administration of chemical substance, Gene No. 4973 ([1]; (C), Unigene Rn.118529, defined direction −, rat liver, oral once daily 28 days) | Behavior of gene caused by administration of chemical substance, Gene No. 4095 ([1]; (C), Unigene Rn.119024, defined direction −, rat liver, oral once daily 28 days) | Behavior of gene caused by administration of chemical substance, Gene No. 6303 ([1]; (C), Unigene Rn.123063, defined direction −, rat liver, oral once daily 28 days) | Behavior of gene caused by administration of chemical substance, Gene No. 5878 ([1]; (C), Unigene Rn.143213, defined direction −, rat liver, oral once daily 28 days) | Behavior of gene caused by administration of chemical substance, Gene No. 1562 ([1]; (C), Unigene Rn.14744, defined direction −, rat liver, oral once daily 28 days) | Behavior of gene caused by administration of chemical substance, Gene No. 1741 ([1]; (C), Unigene Rn.1647, defined direction −, rat liver, oral once daily 28 days) | Behavior of gene caused by administration of chemical substance, Gene No. 154 ([1]; (C), Unigene Rn.185941, defined direction −, rat liver, oral once daily 28 days) | Behavior of gene caused by administration of chemical substance, Gene No. 1993 ([1]; (C), Unigene Rn.18728, defined direction −, rat liver, oral once daily 28 days) | Behavior of gene caused by administration of chemical substance, Gene No. 813 ([1]; (C), Unigene Rn.201760, defined direction +, rat liver, oral once daily 28 days) | Behavior of gene caused by administration of chemical substance, Gene No. 3776 ([1]; (C), Unigene Rn.43232, defined direction −, rat liver, oral once daily 28 days) | Behavior of gene caused by administration of chemical substance, Gene No. 3929 ([1]; (C), Unigene Rn.4620, defined direction +, rat liver, oral once daily 28 days) | Behavior of gene caused by administration of chemical substance, Gene No. 1119 ([1]; (C), Unigene Rn.9757, defined direction +, rat liver, oral once daily 28 days) | Behavior of gene caused by administration of chemical substance, Gene No. 6742 ([1]; (C), Unigene Rn.9779, defined direction +, rat liver, oral once daily 28 days) | Behavior of gene caused by administration of chemical substance, Gene No. 5634 ([1]; (C), Unigene Rn.9862, defined direction −, rat liver, oral once daily 28 days)
C+: Carcinogenicity (rodent)
−: Behavior of gene caused by administration of chemical substance, Gene No. 2045 ([1]; (B), Unigene Rn.19329, defined direction +, rat liver, oral once daily 28 days) | Behavior of gene caused by administration of chemical substance, Gene No. 2203 ([1]; (B), Unigene Rn.21240, defined direction +, rat liver, oral once daily 28 days) | Behavior of gene caused by administration of chemical substance, Gene No. 725 ([1]; (C), Unigene Rn.108075, defined direction −, rat liver, oral once daily 28 days) | Behavior of gene caused by administration of chemical substance, Gene No. 1163 ([1]; (C), Unigene Rn.11766, defined direction +, rat liver, oral once daily 28 days) | Behavior of gene caused by administration of chemical substance, Gene No. 1334 [1, 4] | Behavior of gene caused by administration of chemical substance, Gene No. 6620 [1, 4] | Behavior of gene caused by administration of chemical substance, Gene No. 1131 ([1]; (C), Unigene Rn.144946, defined direction −, rat liver, oral once daily 28 days) | Behavior of gene caused by administration of chemical substance, Gene No. 893 ([1]; (C), Unigene Rn.164817, defined direction +, rat liver, oral once daily 28 days) | Behavior of gene caused by administration of chemical substance, Gene No. 6026 ([1]; (C), Unigene Rn.167685, defined direction −, rat liver, oral once daily 28 days) | Behavior of gene caused by administration of chemical substance, Gene No. 2494 ([1]; (C), Unigene Rn.23969, defined direction +, rat liver, oral once daily 28 days) | Behavior of gene caused by administration of chemical substance, Gene No. 2546 ([1]; (C), Unigene Rn.24561, defined direction −, rat liver, oral once daily 28 days) | Behavior of gene caused by administration of chemical substance, Gene No. 5726 ([1]; (D), Unigene Rn.9939, defined direction −, rat liver, oral once daily 28 days)
Cr+: Liver carcinogenicity (liver)
